Where two headings read alike, the source gives them in different places.
What was measured:
Test in all cases: Inhibition of in vitro proliferation of tumor cells (CTG, CellTiter-Glo)
Format in all cases: cell-based
BT474 = details: Homo sapiens, BT-474, 120 h, 5 days of culture, CTG reagent, read-out: Proliferation inhibitory activity IC50 (nM) BT474
Experimental: (§1) Assay objective: To detect the inhibitory effects of the drug compounds on tumor cell proliferation, for example, the inhibitory activity thereof on the in vitro proliferation of NCI-H716, NCI-H1975, NCI-H1373, NCI-H647, NCI-H520, BT474, DLD-1, NCI-N87, NUGC-4, SNU-423, MKN-45, SK-OV-3, OVCAR3, Ls174T, HCC1954, and ES2 tumor cells. The cells were treated with the compounds at different concentrations in vitro. After 5 days of culture, the proliferation of the cells was detected using the CTG (CellTiter-Glo® Luminescent Cell Viability Assay, Promega, Cat. No. G7558) reagent, and the in vitro activity of the compounds was evaluated based on the IC50 value. 1. Cell preparation: NCI-H716, NCI-H1975, NCI-H1373, NCI-H647, NCI-H520, BT474, DLD-1, NCI-N87, NUGC-4, SNU-423, MKN-45, SK-OV-3, OVCAR3, Ls174T, HCC1954, and ES2 cells in the logarithmic phase were each taken, washed once with PBS, and then digested with 2-3 mL of trypsin for 2-3 min. After the cells were digested completely, 10-15 mL of a cell culture medium was added to elute the digested cells. The eluate was centrifuged at 1000 rpm for 5 min, and the supernatant was discarded. Subsequently, the resulting cells were resuspended in 10-20 mL of the cell culture medium to prepare a single-cell suspension. 2. Cell plating: The NCI-H716, NCI-H1975, NCI-H1373, NCI-H647, NCI-H520, NCI-N87, BT474, DLD-1, NCI-N87, NUGC-4, SNU-423, MKN-45, SK-OV-3, OVCAR3, Ls174T, HCC1954, and ES2 single-cell suspensions were each well mixed and adjusted to a viable cell density of 6 × 10^4 cells/mL with the cell culture medium. The density-adjusted cell suspensions were each well mixed and added to a 96-well cell culture plate at 50 µL/well. The culture plate was incubated in an incubator overnight (37 °C, 5% CO2). 3. Compound preparation: Each compound was dissolved in DMSO to prepare a stock solution with an initial concentration of 10 mM. There were 6 concentrations in total for the small molecule compound: 1000 nM, 333 nM, 111 nM, 37.03 nM, 12.34 nM, and 4.11 nM. 4. Sample addition: The prepared test samples at different concentrations were added to the culture plate, with two duplicate wells set for each sample. The culture plate was incubated in the incubator for 5 days (37 °C, 5% CO2). 5. Color development: The 96-well cell culture plate was taken out, and 50 µL of the CTG reagent was added to each well. The plate was then incubated at room temperature for 10 min. 6. Plate reading: The 96-well cell culture plate was taken out and placed in a microplate reader, and the chemiluminescence was measured using the microplate reader. 7. Data analysis: The cell viability was calculated according to the formula: (Lumtest drug - Lumblank control)/(Lumsolvent blank control - Lumblank control) × 100%. Using a nonlinear regression model in the GraphPad Prism software, a sigmoidal dose-survival rate curve was plotted, and the IC50 values were calculated. Table 2. IC50 values for the inhibition of the in vitro proliferation of tumor cells by the racemates of the small molecule compounds of the present application

NCI-N87 = details: Homo sapiens, 120 h, racemates, 5 days of culture, CTG reagent, read-out: Proliferation inhibitory activity IC50 (nM) NCI-N87
Experimental: as §1

NUGC-4 = details: Homo sapiens, 120 h; racemates; NUGC-4 cells; 5 days of culture; CTG reagent; read-out: Proliferation inhibitory activity IC50 (nM) NUGC-4
Experimental: as §1

SK-OV-3 = details: Homo sapiens, 120 h; racemates; SK-OV-3 cells; 5 days of culture; CTG reagent; read-out: Proliferation inhibitory activity IC50 (nM) SK-OV-3
Experimental: as §1

SNU-423 = details: Homo sapiens, 120 h; racemates; SNU-423 cells; 5 days of culture; CTG reagent; read-out: Proliferation inhibitory activity IC50 (nM) SNU-423
Experimental: as §1

MKN-45 = details: Homo sapiens, 120 h; racemates; MKN-45 cells; 5 days of culture; CTG reagent; read-out: Proliferation inhibitory activity IC50 (nM) MKN-45
Experimental: as §1

Ls174T = details: Homo sapiens, 120 h, racemates, 5 days of culture, CTG reagent, read-out: Proliferation inhibitory activity IC50 (nM) Ls174T
Experimental: as §1

DLD-1 = details: Homo sapiens, 120 h, DLD-1 cells, 5 days of culture, CTG reagent, read-out: Proliferation inhibitory activity IC50 (nM) DLD-1
Experimental: as §1

HCC1954 = details: Homo sapiens, 120 h, racemates, 5 days of culture, CTG reagent, read-out: Proliferation inhibitory activity IC50 (nM) HCC1954
Experimental: as §1

[1] = Table 3, chirally resolved compounds

COC(=O)[C@H]1[C@@H](O)[C@@]2(O)c3c(OC)cc(-c4ncco4)cc3O[C@@]2(c2ccc(C#N)cc2)[C@@H]1c1cccc(N)c1 (racemic) [Racemate of compound 2]
IC50 (BT474; racemates): 3.33 nM
IC50 (NCI-N87): 2.07 nM
IC50 (NUGC-4): 1.98 nM
IC50 (SK-OV-3): 2.05 nM
IC50 (SNU-423): 3.67 nM

COC(=O)[C@H]1[C@@H](O)[C@@]2(O)c3c(OC)cc(-c4cnco4)cc3O[C@@]2(c2ccc(C#N)cc2)[C@@H]1c1cccc(N)c1 (racemic) [Racemate of compound 3]
IC50 (NCI-N87): 3.63 nM
IC50 (NUGC-4): 3.51 nM
IC50 (SNU-423): 8.18 nM

COc1cc(-c2ncco2)cc2c1[C@]1(O)[C@H](O)[C@H](C(=O)N(C)OC)[C@@H](c3cccc(N)c3)[C@]1(c1ccc(C#N)cc1)O2 (racemic) [Racemate of compound 4]
IC50 (BT474; racemates): 3.04 nM
IC50 (MKN-45): 1.4 nM

COc1ccc([C@@]23Oc4cc(-c5ncco5)cc(OC)c4[C@]2(O)[C@@H](CN)[C@H](CO)[C@H]3c2ccccc2)cc1 (racemic) [Racemate of compound 9]
IC50 (BT474; racemates): 0.829 nM
IC50 (MKN-45): 0.695 nM

COc1cc(-c2ncco2)cc2c1[C@]1(O)[C@H](O)[C@H](C(=O)N(C)OC)[C@@H](c3cccc(O)c3)[C@]1(c1ccc(C#N)cc1)O2 (racemic) [Racemate of compound 15]
IC50 (MKN-45): 2.65 nM

COc1cc(-c2ncco2)cc2c1[C@]1(O)[C@H](O)[C@H](C(=O)N3CC(O)C3)[C@@H](c3ccccc3)[C@]1(c1ccc(C#N)cc1)O2 (racemic) [Racemate of compound 16]
IC50 (MKN-45): 2.34 nM

COc1cc(-c2ncc(C#N)cn2)cc2c1[C@]1(O)[C@H](O)[C@H](C(=O)N(C)OC)[C@@H](c3cccc(N)c3)[C@]1(c1ccc(C#N)cc1)O2 (racemic) [Racemate of compound 30]
IC50 (MKN-45): 1.5 nM

COc1cnc(-c2cc(OC)c3c(c2)O[C@@]2(c4ccc(C#N)cc4)[C@H](c4cccc(N)c4)[C@@H](C(=O)N(C)OC)[C@@H](O)[C@@]32O)nc1 (racemic) [Racemate of compound 31]
IC50 (MKN-45): 1.32 nM

COc1cc(-c2ncc(C(F)(F)F)cn2)cc2c1[C@]1(O)[C@H](O)[C@H](C(=O)N(C)OC)[C@@H](c3cccc(N)c3)[C@]1(c1ccc(C#N)cc1)O2 (racemic) [Racemate of compound 32]
IC50 (Ls174T): 5.45 nM

COc1cnc(-c2cc(OC)c3c(c2)O[C@@]2(c4ccc(C#N)cc4)[C@H](c4cccc(N)c4)[C@@H](C(=O)N(C)OC)[C@@H](O)[C@@]32O)cn1 (racemic) [Racemate of compound 43]
IC50 (MKN-45): 2 nM

COc1ccc([C@@]23Oc4cc(-c5ncco5)cc(OC)c4[C@]2(O)[C@H](O)[C@H](C(=O)N2CC(O)C2)[C@H]3c2ccccc2)cc1 (racemic) [Racemate of compound 48]
IC50 (BT474; racemates): 2.25 nM

COc1ccc([C@@]23Oc4cc(-c5ncco5)ccc4[C@]2(O)[C@H](O)[C@H](C(=O)N(C)C)[C@H]3c2ccccc2)cc1 (racemic) [Racemate of compound 57]
IC50 (DLD-1; racemates): 2.35 nM

COc1ccc([C@@]23Oc4cc(-c5ncco5)cc(OC)c4[C@]2(O)[C@@H](C#N)C[C@H]3c2cccc(N)c2)cc1 (racemic) [Racemate of compound 86]
IC50 (DLD-1; racemates): 2.99 nM
IC50 (HCC1954): 2.15 nM

COc1ccc([C@@]23Oc4cc(-c5ncco5)cc(OC)c4[C@]2(O)[C@@H](CNC(=O)NO)C[C@H]3c2ccccc2)cc1 (racemic) [Racemate of compound 87]
IC50 (DLD-1; racemates): 2.84 nM

COc1ccc([C@@]23Oc4cc(-c5ncco5)cc(OC)c4[C@]2(O)[C@@H](CNC(=O)[C@H](CO)N(C)C)C[C@H]3c2ccccc2)cc1 (racemic) [Racemate of compound 89]
IC50 (DLD-1; racemates): 1.35 nM

COc1ccc([C@@]23Oc4cc(-c5ncco5)cc(OC)c4[C@]2(O)[C@@H](CNC(=O)COCCO)C[C@H]3c2ccccc2)cc1 (racemic) [Racemate of compound 91]
IC50 (DLD-1; racemates): 2.16 nM

COc1ccc([C@@]23Oc4cc(-c5ncco5)cc(OC)c4[C@]2(O)[C@@H](CNC(=O)CN(C)C)C[C@H]3c2cccc(N)c2)cc1 (racemic) [Racemate of compound 93]
IC50 (HCC1954): 1.5 nM

COc1ccc([C@@]23Oc4cc(-c5nc(CO)co5)cc(OC)c4[C@]2(O)[C@@H](N(C)C)C[C@H]3c2ccccc2)cc1 (racemic) [Racemate of compound 107]
IC50 (DLD-1; racemates): 0.92 nM

COc1cc(-c2cscn2)cc2c1[C@]1(O)[C@H](O)[C@H](C(=O)N(C)C)[C@@H](c3cccc(N)c3)[C@]1(c1ccc(C#N)cc1)O2 (racemic) [Racemate of compound 111]
IC50 (HCC1954): 2.98 nM

COc1ccc([C@@]23Oc4cc(-c5ncco5)cc(OC)c4[C@]2(O)[C@H](O)C[C@H]3c2cccc(N)c2)cc1 (single isomer, unassigned) [Compound 49]
IC50 (BT474; [1]): < 10 nM

COc1ccc([C@@]23Oc4cc(-c5ncco5)cc(OC)c4[C@]2(O)[C@@H](CNC(=O)CN(C)C)C[C@H]3c2cccc(N)c2)cc1 (single isomer, unassigned) [Compound 93]
IC50 (BT474; [1]): < 10 nM
IC50 (DLD-1; [1]): < 10 nM

COc1ccc([C@@]23Oc4cc(-c5ncco5)cc(OC)c4[C@]2(O)[C@@H](N(C)C)C[C@H]3c2cccc(N)c2)cc1 (single isomer, unassigned) [Compound 98]
IC50 (BT474; [1]): < 10 nM
IC50 (DLD-1; [1]): < 10 nM

COc1cc(-c2ncco2)cc2c1[C@]1(O)[C@H](O)[C@H](C(=O)N(C)OC)[C@@H](c3cccc(N)c3)[C@]1(c1ccc(C#N)cc1)O2 [Compound 4]
IC50 (BT474; [1]): < 10 nM
IC50 (DLD-1; [1]): < 10 nM

COc1ccc([C@@]23Oc4cc(OC)cc(OC)c4[C@]2(O)[C@H](O)[C@H](C(=O)N(C)C)[C@H]3c2ccccc2)cc1 [Rocaglamide, reference compound]
IC50 (BT474; racemates): 5.49 nM
IC50 (DLD-1; racemates): 8.19 nM
IC50 (HCC1954): 2.66 nM
IC50 (Ls174T): 6.08 nM
IC50 (MKN-45): 5.75 nM
IC50 (NCI-N87): 9.32 nM
IC50 (NUGC-4): 8.25 nM
IC50 (SK-OV-3): 8.52 nM
IC50 (SNU-423): 14.4 nM
